From patent publication US8778974B2, “Trisubstituted 1,2,4 triazoles” (Janssen Pharmaceutica NV, priority 2008, dated 2014) come the findings set out here.

In general, melting point refers to the temperature, or range, at which the solid turns liquid.

Data set [1] has as its target T1, hα7-wt nAChR-expressing cells (Homo sapiens, UniProt P36544).
T1 construct: expressed in transfected cells; host or cells: hα7-wt nAChR-expressing cells
In words: Ca2+ flux imaging (FDSS) (Protocol B), PAM activity with choline 100 μM. It counts as cell-based. Particulars: according to Ex. D.1b; read-out: % Efficacy. The procedure:
Ca^2+ Flux Imaging (FDSS) (Protocol B)
• a) Assay buffer • Hanks buffered saline solution (HBSS, Invitrogen, Belgium), supplemented with 10 mM HEPES (Invitrogen, Belgium), CaCl2 to a final concentration of 5 mM, 0.1% Bovine serum albumin (Sigma-Aldrich NV, Belgium). • b) Calcium-sensitive dye—Fluo-4AM • Fluo-4AM (Molecular Probes, USA) was dissolved in DMSO containing 10% Pluronic acid (Molecular Probes, USA) to give a stock solution which was diluted in assay buffer supplemented with 5 mM probenicid (Sigma, Al-drich NV, Belgium) to give a final concentration of 2 μM. • c) 384-well plates • Black 384 well plate black/clear plates, PDL pre-coated (Corning, Incorporated, USA) • d) Calcium flux measurement • A Functional drug screening system (FDSS, Hamamatsu) was used to measure intracellular free-calcium flux signals. Method
Monolayers of hα7-wt nAChR-expressing cells were grown in multi-well plates, in particular black-sided, transparent bottomed 384 well plates coated with poly-D-lysine for 24 hours prior to loading with a fluorescent calcium indicator, in a particular embodiment loading with fluo-4AM for up to 120 minutes.
PAM activity was detected in real time by applying the compounds to be tested to the loaded cells along with a α7 nicotinic receptor agonist during constant monitoring of cellular fluorescence in a FDSS. Compounds giving peak fluorescent responses greater than the response due to agonist alone, were considered to be α7 nAChR PAM's. In a particular embodiment, the α7 nicotinic receptor agonist was choline, a more particular embodiment choline applied at a sub-maximal concentration of 100 μM. In a further setting of the present invention the compounds to be tested were applied prior to the α7 nicotinic receptor agonist, in a particular embodiment up to 10 minutes prior to the agonist.
A control response to choline was calculated on each plate from the difference in peak in fluorescence in wells receiving either choline or assay buffer alone. Compounds of the present invention were tested at a concentration range from 0.01 μM to 30 μM. Compounds were considered to have an interesting activity when they potentiated the choline signal at least with 500% when tested at a concentration of 30 μM (the efficacy of 100 μM choline was defined as 100% in the absence of a PAM). The compounds also have a potentiating effect on the response to choline when measured by whole-cell patch clamp electrophysiology in GH4Cl cells stably over-expressing the human wild-type α7 receptor.
In general terms: Calcium assays in cells follow changes in intracellular calcium, usually with a dye or a luminescent sensor.

Data set [2] deals with T2, hα7-wt nAChR-expressing GH4Cl cells (Homo sapiens, UniProt P36544).
T2 construct: expressed in transfected cells
T2 sequence (P36544 23-502): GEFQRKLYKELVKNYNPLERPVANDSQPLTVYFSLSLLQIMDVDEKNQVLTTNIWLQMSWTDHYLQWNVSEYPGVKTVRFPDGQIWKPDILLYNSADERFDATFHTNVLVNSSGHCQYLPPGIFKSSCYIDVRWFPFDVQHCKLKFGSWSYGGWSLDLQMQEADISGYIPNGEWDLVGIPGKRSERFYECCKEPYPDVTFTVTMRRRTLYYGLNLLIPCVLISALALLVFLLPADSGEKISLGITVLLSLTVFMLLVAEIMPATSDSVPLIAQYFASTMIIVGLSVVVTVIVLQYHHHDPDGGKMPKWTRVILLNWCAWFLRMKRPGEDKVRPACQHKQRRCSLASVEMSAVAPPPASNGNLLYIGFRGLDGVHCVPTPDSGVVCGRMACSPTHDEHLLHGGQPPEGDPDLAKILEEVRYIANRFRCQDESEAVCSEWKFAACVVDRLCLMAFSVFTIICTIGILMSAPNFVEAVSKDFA
In words: Patch-clamp current recording (whole-cell), potentiation of choline 1 mM response, PAM type. It is filed as cell-based. Set-up: key to Pam type: Type 0 compounds minimally enhance the effect size of the current elicited by 1 mM choline.; Type 1 compounds enhance the effect size of the current elicited by 1 mM choline but minimally alter the kinetics of the receptor.; Type 2 compounds enhance the effect size of the current elicited by 1 mM choline while reducing the rate and/or the extent of desensitization.; Type 3 compounds enhance the effect size of the current elicited by 1 mM choline. When tested at higher concentrations up to 10 μM they completely inhibit desensitization, in particular a 1 mM choline application of 250 milliseconds.; Type 4 compounds allow for an initial desensitization of the receptor followed by a re-opening of the receptor during agonist application. Particulars: for EC50: according to Ex. D.2, "<5" = no top plateau reached at maximal concentration, read-out: Potency (pEC50) (converted); for Pam type: patch-clamp current recording, 1 mM choline. The method in brief: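 PAM type assigned qualitatively from current size and desensitization rate/extent when compound is applied simultaneously with 1 mM choline. Recordings: hα7-wt nAChR GH4Cl cells, whole-cell patch clamp, holding −70 mV, series resistance <15 MΩ with ≥60% compensation, pH 7.3 HEPES solutions, solution switching <100 ms.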
(The patch-clamp technique gives a direct electrical read-out from membranes.)

T1 sequence (P36544 23-502): as above

On to `C/C=C/c1nc(Nc2ccc(F)c(C(F)(F)F)c2)nn1-c1ccnc(C)c1` [E11, N-[4-Fluoro-3-(trifluoromethyl)phenyl]-1-(2-methyl-4-pyridinyl)-5-[(1E)-1-propenyl]-1H-1,2,4-triazol-3-amine], for which the melting point amounted to 226.3 °C. Also, the Emax in data set [1] was 341%. Moreover, the EC50 in data set [2] was 138 nM.

In turn, `C[C@H](O)Cc1nc(Nc2ccc(F)c(F)c2)nn1-c1ccc(F)cc1` [E19] displayed a melting point of 178 °C. For the same compound, in data set [1], the Emax is 445%. Moreover, in data set [2], the EC50 is 3020 nM.

Consider `CNC(=O)CCc1nc(Nc2ccc(F)c(F)c2)nn1-c1ccccc1Cl` [E38], for which the Emax in data set [1] is 253%. Further, in data set [2], the EC50 is 3090 nM.

Turning to `CNC(=O)CCc1nc(Nc2ccc(F)c(F)c2)nn1-c1cccc(Cl)c1` [E39], the Emax in data set [1] is 674%. In data set [2], the EC50 is 2570 nM.

`CNC(=O)CCc1nc(Nc2ccc(F)c(F)c2)nn1-c1ccc(Cl)cc1` [E40] had a melting point of 177.3 °C. In addition, the Emax in data set [1] came to 495%. In addition, the EC50 in data set [2] was 1910 nM.

With `CNC(=O)CCc1nc(Nc2ccc(F)c(F)c2)nn1-c1ccc(OC(F)(F)F)cc1` [E47], in data set [1], the Emax stood at 698%. Further, the EC50 in data set [2] was 1510 nM.

As to `CC[C@@H](O)Cc1nc(Nc2cc(OC)cc(C(F)(F)F)c2)nn1-c1cc(C)nc(C)c1` [E128], the melting point worked out at 138.8 °C. Moreover, the Emax in data set [1] came out at 994%. In data set [2], the EC50 was 126 nM and the Pam type is recorded as 4.

On to `Cc1cc(-n2nc(Nc3cccc(Cl)c3F)nc2CC(=O)NCC2CC2)c(C)cn1` [E158], for which, in data set [1], the Emax is 328%. Further, in data set [2], the EC50 is 1380 nM and the Pam type is reported as 1.

`Cc1cc(-n2nc(Nc3cccc(Cl)c3F)nc2CC(=O)NC2CCC2)c(C)cn1` [E159]: the Emax in data set [1] is 592%. Moreover, in data set [2], the EC50 was 1740 nM and the Pam type is on record as 1.

For the compound `COc1ccc(-n2nc(Nc3cccc(OC(F)(F)F)c3)nc2CCC(=O)N(C)C)cc1` [E183], the Emax in data set [1] was found to be 718%. For the same compound, in data set [2], the EC50 was 26.9 nM and the Pam type was determined as 1.

In the case of `Cc1nccc(-n2nc(Nc3cccc(Cl)c3F)nc2CC(=O)NCC2CC2)c1C` [E193], the Emax in data set [1] came to 327%. Moreover, the EC50 in data set [2] is ~3020 nM.

Take `CCNC(=O)Cc1nc(Nc2ccc(F)c(F)c2F)nn1-c1cc(C)nc(C)c1` [E210]: the melting point worked out at 241.5 °C. Also, in data set [2], the EC50 is 417 nM and the Pam type is 2.

The compound `Cc1cc(-n2nc(Nc3ccc(F)c(F)c3F)nc2CC(=O)NC2CC2)cc(C)n1` [E211] registered a melting point of 237.3 °C. Also, in data set [2], the EC50 is 372 nM and the Pam type is 2.

`Cc1cc(-n2nc(Nc3ccc(F)c(F)c3F)nc2CC(=O)NC2CCC2)cc(C)n1` [E212] gave a melting point of 249.4 °C. In addition, in data set [2], the EC50 was 251 nM and the Pam type stood at 2.

Consider `CC[C@H](O)Cc1nc(Nc2cc(OC)cc(C(F)(F)F)c2)nn1-c1ccnc(C)c1C` [E220], for which the Emax in data set [1] stood at 646%. Besides, in data set [2], the EC50 was 2040 nM.

Turning to `Cc1cc(-n2nc(Nc3ccc(F)c(C(F)(F)F)c3)nc2CC(=O)NC2CC2)cc(C)n1` [E226], the Emax in data set [1] was 711%. In data set [2], the EC50 is 120 nM and the Pam type is listed as 1.

As for `Cc1cc(-n2nc(Nc3ccc(F)c(C(F)(F)F)c3)nc2CCC(=O)N(C)C)cc(C)n1` [E233], the melting point was determined as 184 °C. Also, the EC50 in data set [2] was ~29.5 nM.

For the compound `Cc1cc(-n2nc(Nc3cccc(Cl)c3F)nc2CCC(=O)N(C)C)cc(C)n1` [E265], the Emax in data set [1] was determined as 616%. In data set [2], the EC50 was 37.2 nM.

As to `CCNC(=O)C(C)c1nc(Nc2ccc3c(c2)OC(F)(F)O3)nn1-c1cc(C)nc(C)c1` (centres unmarked) [E275], the melting point stood at 244 °C. Moreover, in data set [2], the EC50 is 1050 nM and the Pam type was determined as 2.

`Cc1cc(-n2nc(Nc3ccc(F)c(F)c3F)nc2C[C@H](C)O)ccn1` [E277]: the melting point came out at 131.4 °C. Moreover, the EC50 in data set [2] is 6310 nM.
